Results: patent US8633183B2 (priority 2010, dated 2014)

target: PI3Kalpha (Homo sapiens (Human), UniProt P42336); details: read-out: IC50 PI3K
Sequence (P42336 whole entry, looked up): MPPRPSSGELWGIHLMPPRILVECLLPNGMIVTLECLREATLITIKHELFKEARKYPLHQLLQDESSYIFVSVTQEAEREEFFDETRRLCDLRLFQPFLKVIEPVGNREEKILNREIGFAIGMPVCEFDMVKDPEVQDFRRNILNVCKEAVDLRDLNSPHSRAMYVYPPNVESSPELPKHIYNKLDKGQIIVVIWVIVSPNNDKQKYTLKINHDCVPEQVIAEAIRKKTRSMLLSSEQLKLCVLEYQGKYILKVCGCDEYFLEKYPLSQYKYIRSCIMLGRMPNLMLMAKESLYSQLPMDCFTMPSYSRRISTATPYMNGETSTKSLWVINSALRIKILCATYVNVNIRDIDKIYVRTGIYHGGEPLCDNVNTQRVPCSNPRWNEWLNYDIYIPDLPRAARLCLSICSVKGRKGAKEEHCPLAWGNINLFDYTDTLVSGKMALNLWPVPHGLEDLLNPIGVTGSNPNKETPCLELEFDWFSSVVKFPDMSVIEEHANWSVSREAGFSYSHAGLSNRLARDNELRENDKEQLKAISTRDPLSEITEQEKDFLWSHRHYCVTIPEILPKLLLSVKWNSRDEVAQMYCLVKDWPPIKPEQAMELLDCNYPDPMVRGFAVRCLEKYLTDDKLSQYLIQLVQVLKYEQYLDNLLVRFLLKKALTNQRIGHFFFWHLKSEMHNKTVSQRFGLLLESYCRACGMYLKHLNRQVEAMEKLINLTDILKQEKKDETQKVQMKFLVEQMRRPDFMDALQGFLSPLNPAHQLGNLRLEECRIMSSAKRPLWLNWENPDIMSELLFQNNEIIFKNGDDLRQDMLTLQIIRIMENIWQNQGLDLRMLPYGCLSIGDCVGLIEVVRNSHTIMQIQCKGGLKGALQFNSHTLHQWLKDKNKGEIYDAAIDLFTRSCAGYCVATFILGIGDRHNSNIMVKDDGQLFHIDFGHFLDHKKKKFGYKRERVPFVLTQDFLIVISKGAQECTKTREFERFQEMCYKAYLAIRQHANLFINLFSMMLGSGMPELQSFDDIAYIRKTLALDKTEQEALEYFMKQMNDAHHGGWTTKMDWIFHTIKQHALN

Row | Structure (SMILES) | IC50
1 | CCc1ncnc(-c2ccc(C(=O)N3CCN(C(C)(C)C)CC3)c(OC)c2)c1C#Cc1ccc(N)nc1 [Example D-48] | 251 nM
2 | CCc1ncnc(-c2ccc(C(=O)N3CCN(C(C)C)CC3)c(OC)c2)c1C#Cc1ccc(N)nc1 [Example D-50] | 211 nM
3 | CCc1ncnc(-c2ccc(C(=O)N3CCN(CCOC)CC3)c(OC)c2)c1C#Cc1ccc(N)nc1 [Example D-52] | 134 nM
4 | CCc1ncnc(-c2ccc(C(=O)N3CCN(CC)CC3)c(OC)c2)c1C#Cc1ccc(N)nc1 [Example D-53] | 213 nM
5 | CCc1ncnc(-c2ccc(C(=O)N3CCN(CC(F)(F)F)CC3)c(OC)c2)c1C#Cc1ccc(N)nc1 [Example D-54] | 81 nM
6 | CCc1ncnc(-c2ccc(C(=O)N3CCN(S(=O)(=O)CC)CC3)c(OC)c2)c1C#Cc1ccc(N)nc1 [Example D-55] | 36 nM
7 | CCc1ncnc(-c2ccc(C(=O)N3CCN(C(C)=O)CC3)c(OC)c2)c1C#Cc1ccc(N)nc1 [Example D-56] | 73 nM
8 | CCc1ncnc(-c2ccc(C(=O)N3CCN(CCO)CC3)c(OC)c2)c1C#Cc1ccc(N)nc1 [Example D-57] | 152 nM
9 | CCc1ncnc(-c2ccc(C(=O)N3CCNC(=O)C3)c(OC)c2)c1C#Cc1ccc(N)nc1 [Example D-59] | 19 nM
10 | CCc1ncnc(-c2ccc(C(=O)N3CCN(CCN(C)C)CC3)c(OC)c2)c1C#Cc1ccc(N)nc1 [Example D-60] | 546 nM
11 | CCc1ncnc(-c2ccc(C(=O)N3CCN(CC(F)F)CC3)c(F)c2)c1C#Cc1ccc(N)nc1 [Example D-61] | 86 nM
12 | CCc1ncnc(-c2ccc(C(=O)N3CCC(N4CCN(C)CC4)CC3)c(F)c2)c1C#Cc1ccc(N)nc1 [Example D-62] | 205 nM
13 | CCc1ncnc(-c2ccc(C(=O)N3CCC(N4CCOCC4)CC3)c(F)c2)c1C#Cc1ccc(N)nc1 [Example D-63] | 234 nM
14 | CCc1ncnc(-c2ccc(C(=O)N3CCN(C4CCN(C)CC4)CC3)c(F)c2)c1C#Cc1ccc(N)nc1 [Example D-64] | 198 nM
15 | CCc1ncnc(-c2ccc(C(=O)NC3CCN(C)CC3)c(F)c2)c1C#Cc1ccc(N)nc1 [Example D-65] | 436 nM
16 | CCc1ncnc(-c2ccc(C(=O)N3CCC(N4CCN(C5CCN(C)CC5)CC4)CC3)c(F)c2)c1C#Cc1ccc(N)nc1 [Example D-67] | 244 nM
17 | CCc1ncnc(-c2ccc(C(=O)N(C)O)c(F)c2)c1C#Cc1ccc(N)nc1 [Example D-68] | 42 nM
18 | CCc1ncnc(-c2ccc(C(=O)N3CCN(CC(F)(F)F)CC3)c(F)c2)c1C#Cc1ccc(N)nc1 [Example D-69] | 133 nM
19 | CCc1ncnc(-c2ccc(C(=O)N3CCC(N4CCCCC4)CC3)c(F)c2)c1C#Cc1ccc(N)nc1 [Example D-70] | 490 nM
20 | CCc1ncnc(-c2ccc(C(=O)N3CCC(O)CC3)c(F)c2)c1C#Cc1ccc(N)nc1 [Example D-71] | 85 nM
21 | CCc1ncnc(-c2ccc(C(=O)N(C)CC3CCCN(C)C3)c(F)c2)c1C#Cc1ccc(N)nc1 [Example D-73] | 324 nM
22 | CCc1ncnc(-c2ccc(C(=O)NCC3CCCN(C)C3)c(F)c2)c1C#Cc1ccc(N)nc1 [Example D-74] | 630 nM
23 | CCc1ncnc(-c2ccc(C(=O)NCC3CCN(C)C3)c(F)c2)c1C#Cc1ccc(N)nc1 [Example D-75] | 335 nM
24 | CCc1ncnc(-c2ccc(C(=O)N(C)CC3CCN(C)CC3)c(F)c2)c1C#Cc1ccc(N)nc1 [Example D-76] | 339 nM
25 | CCc1ncnc(-c2ccc(C(=O)NCC3CCN(C)CC3)c(F)c2)c1C#Cc1ccc(N)nc1 [Example D-77] | 303 nM

Row | Structure (SMILES) | IC50
26 | CCc1ncnc(-c2ccc(C(=O)N3CCC(C(C)(C)O)CC3)c(F)c2)c1C#Cc1ccc(N)nc1 [Example D-79] | 170 nM
27 | CCc1ncnc(-c2ccc(C(=O)N(C)CC(C)(C)O)c(F)c2)c1C#Cc1ccc(N)nc1 [Example D-81] | 84 nM
28 | CCc1ncnc(-c2ccc(C(=O)N3CCN(C(C)=O)CC3)c(F)c2)c1C#Cc1ccc(N)nc1C [Example D-82] | 146 nM
29 | CCCCN1CCN(C(=O)c2ccc(-c3ncnc(CC)c3C#Cc3ccc(N)nc3)cc2F)CC1 [Example D-83] | 219 nM
30 | CCc1ncnc(-c2ccc(C(=O)N3CCN(C4CCOCC4)CC3)c(F)c2)c1C#Cc1ccc(N)nc1 [Example D-84] | 127 nM
31 | CCc1ncnc(-c2ccc(C(=O)N3CCN(CC(=O)N(C)C)CC3)c(F)c2)c1C#Cc1ccc(N)nc1 [Example D-85] | 115 nM
32 | CCc1ncnc(-c2ccc(C(=O)N3CCN(C4CCS(=O)(=O)C4)CC3)c(F)c2)c1C#Cc1ccc(N)nc1 [Example D-86] | 95 nM
33 | CCc1ncnc(-c2ccc(C(=O)N3CCN4CCCCC4C3)c(F)c2)c1C#Cc1ccc(N)nc1 [Example D-87] | 233 nM
34 | CCc1ncnc(-c2ccc(C(=O)N3CCN(CC4CCCO4)CC3)c(F)c2)c1C#Cc1ccc(N)nc1 [Example D-88] | 118 nM
35 | CCc1ncnc(-c2ccc(C(=O)N3CCN(S(=O)(=O)CC)CC3)c(F)c2)c1C#Cc1ccc(N)nc1 [Example D-89] | 52 nM
36 | CCc1ncnc(-c2ccc(C(=O)N3CCN(C(C)=O)CC3)c(F)c2)c1C#Cc1ccc(N)nc1 [Example D-90] | 62 nM
37 | CCc1ncnc(-c2ccc(C(=O)N3CCN(CCO)CC3)c(F)c2)c1C#Cc1ccc(N)nc1 [Example D-91] | 109 nM
38 | CCc1ncnc(-c2ccc(C(=O)N3CCN(c4ccccn4)CC3)c(F)c2)c1C#Cc1ccc(N)nc1 [Example D-92] | 124 nM
39 | CCc1ncnc(-c2ccc(C(=O)N3CCN(c4ccncc4)CC3)c(F)c2)c1C#Cc1ccc(N)nc1 [Example D-93] | 266 nM
40 | CCc1ncnc(-c2ccc(C(=O)N3CCN(CC4CCCCC4)CC3)c(F)c2)c1C#Cc1ccc(N)nc1 [Example D-94] | 1820 nM
41 | CCc1ncnc(-c2ccc(C(=O)N3CCN(CCOC)CC3)c(F)c2)c1C#Cc1ccc(N)nc1 [Example D-95] | 145 nM
42 | CCc1ncnc(-c2ccc(C(=O)N3CCN(C4CCCC4)CC3)c(F)c2)c1C#Cc1ccc(N)nc1 [Example D-96] | 151 nM
43 | CCc1ncnc(-c2ccc(C(=O)N3CCN(Cc4ccccc4)CC3)c(F)c2)c1C#Cc1ccc(N)nc1 [Example D-97] | 476 nM
44 | CCc1ncnc(-c2ccc(C(=O)N3CCN(c4ccccc4)CC3)c(F)c2)c1C#Cc1ccc(N)nc1 [Example D-98] | 199 nM
45 | CCc1ncnc(-c2ccc(C(=O)N3CCN(CCN(C)C)CC3)c(F)c2)c1C#Cc1ccc(N)nc1 [Example D-99] | 452 nM
46 | CCc1ncnc(-c2ccc(C(=O)N3CCC(N(C)C)CC3)c(F)c2)c1C#Cc1ccc(N)nc1 [Example D-100] | 347 nM
47 | CCc1ncnc(-c2ccc(C(=O)N3CCC(O)(CN(C)C)CC3)c(F)c2)c1C#Cc1ccc(N)nc1 [Example D-103] | 470 nM
48 | CCc1ncnc(-c2ccc(C(=O)N3CCC(CCO)CC3)c(F)c2)c1C#Cc1ccc(N)nc1 [Example D-104] | 125 nM
49 | CCc1ncnc(-c2ccc(C(=O)N3CCN(CC4CC4)CC3)c(F)c2)c1C#Cc1ccc(N)nc1 [Example D-106] | 249 nM
50 | CCc1ncnc(-c2ccc(C(=O)N3CCC(N4CCC(C)CC4)C3)c(F)c2)c1C#Cc1ccc(N)nc1 [Example D-108] | 313 nM

Row | Structure (SMILES) | IC50
51 | CCc1ncnc(-c2ccc(C(=O)N3CCCC(O)C3)c(F)c2)c1C#Cc1ccc(N)nc1 [Example D-110] | 64 nM
52 | CCc1ncnc(-c2ccc(C(=O)N3CCC(N4CCCC4)CC3)c(F)c2)c1C#Cc1ccc(N)nc1 [Example D-112] | 323 nM
53 | CCc1ncnc(-c2ccc(C(=O)N3CCNCC3)c(F)c2)c1C#Cc1ccc(N)nc1 [Example D-113] | 57 nM
54 | CCc1ncnc(-c2ccc(C(=O)N3CCN(CC4CCCN(C)C4)CC3)c(F)c2)c1C#Cc1ccc(N)nc1 [Example D-114] | 188 nM
55 | CCOC(=O)N1CCN(C(=O)c2ccc(-c3ncnc(CC)c3C#Cc3ccc(N)nc3)cc2F)CC1 [Example D-116] | 129 nM
56 | CCc1ncnc(-c2ccc(C(=O)N3CCN(/C(=N\C#N)NC)CC3)c(F)c2)c1C#Cc1ccc(N)nc1 [Example D-117] | 27 nM
57 | CCc1ncnc(-c2ccc(C(=O)N3CCCN(C)CC3)c(F)c2)c1C#Cc1ccc(N)nc1 [Example D-118] | 404 nM
58 | CCc1ncnc(-c2ccc(C(=O)N(C)CCN3CCCC3=O)c(F)c2)c1C#Cc1ccc(N)nc1 [Example D-119] | 55 nM
59 | CCc1ncnc(-c2ccc(C(=O)N3CCN(C4CC4)CC3)c(F)c2)c1C#Cc1ccc(N)nc1 [Example D-121] | 127 nM
60 | CCc1ncnc(-c2ccc(C(=O)N3CCN(C(C)C)CC3)c(F)c2)c1C#Cc1ccc(N)nc1 [Example D-122] | 198 nM
61 | CCc1ncnc(-c2ccc(C(=O)N3CCC(O)(C(F)(F)F)CC3)c(F)c2)c1C#Cc1ccc(N)nc1 [Example D-123] | 324 nM
62 | CCc1ncnc(-c2ccc(C(=O)N3CCC(O)(C(C)C)CC3)c(F)c2)c1C#Cc1ccc(N)nc1 [Example D-124] | 228 nM
63 | CCc1ncnc(-c2ccc(C(=O)N3CCC(O)(CC)CC3)c(F)c2)c1C#Cc1ccc(N)nc1 [Example D-125] | 269 nM
64 | CCc1ncnc(-c2ccc(C(=O)N3CCC(O)(c4ccccc4)CC3)c(F)c2)c1C#Cc1ccc(N)nc1 [Example D-126] | 142 nM
65 | CCc1ncnc(-c2ccc(C(=O)N3CCN(C)C(C)(C)C3)c(F)c2)c1C#Cc1ccc(N)nc1 [Example D-127] | 344 nM
66 | CCc1ncnc(-c2ccc(C(=O)N3CCN(C)C(C)C3)c(F)c2)c1C#Cc1ccc(N)nc1 [Example D-128] | 157 nM
67 | CCc1ncnc(-c2ccc(C(=O)N3CCN(C(C)CC)CC3)c(F)c2)c1C#Cc1ccc(N)nc1 [Example D-129] | 392 nM
68 | CCc1ncnc(-c2ccc(C(=O)N3CCN(C(CC)CC)CC3)c(F)c2)c1C#Cc1ccc(N)nc1 [Example D-130] | 384 nM
69 | CCc1ncnc(-c2ccc(C(=O)N3CCC[C@@H]3CO)c(F)c2)c1C#Cc1ccc(N)nc1 [Example D-131] | 119 nM
70 | CCc1ncnc(-c2ccc(C(=O)N3CC(C)NC(C)C3)c(F)c2)c1C#Cc1ccc(N)nc1 [Example D-132] | 184 nM
71 | CCc1ncnc(-c2ccc(C(=O)N3CCN(C)C(=O)C3)c(F)c2)c1C#Cc1ccc(N)nc1 [Example D-133] | 115 nM
72 | CCc1ncnc(-c2ccc(C(=O)N3CCC[C@H]3CO)c(F)c2)c1C#Cc1ccc(N)nc1 [Example D-135] | 136 nM
73 | CCc1ncnc(-c2ccc(C(=O)N3CCN(CC4CC4)CC3)c(Cl)c2)c1C#Cc1ccc(N)nc1 [Example D-136] | 228 nM
